Consider 22 substances from the OligoGym collection.

“And” between values parts separate entries of the source, which are not always exact repeats. Equal entries are not always repeated. HELM strings list units from the 5' end as sugar, base in round brackets, then linkage (d deoxyribose, r ribose, m 2'-O-methyl, p phosphodiester). Methylation of C is not given here. [moe] = 2'-O-(2-methoxyethyl) (MOE); [cEt] = constrained ethyl (cEt); [sp] = phosphorothioate linkage

The target of the data set is HBV. The note with it: ASO, HepG2, 0.07 µM.
With “RNA1{[moe](A)[sp].[moe](G)[sp].[moe](A)[sp].[moe](A)[sp].[moe](G)[sp].d(T)[sp].d(C)[sp].d(C)[sp].d(A)[sp].d(C)[sp].d(C)[sp].d(A)[sp].d(C)[sp].d(G)[sp].[moe](A)[sp].[moe](G)[sp].[moe](T)}$$$$V2.0”, the target mRNA inhibition is 11% and 0%. The figure for “RNA1{[moe](A)[sp].[moe](G)[sp].[moe](G)[sp].d(A)[sp].d(G)[sp].d(T)[sp].d(T)[sp].d(C)[sp].d(C)[sp].d(G)[sp].d(C)[sp].d(A)[sp].d(G)[sp].[cEt](T)[sp].[cEt](A)[sp].[cEt](T)}$$$$V2.0” is 59% and 58%. Next, “RNA1{[moe](A)[sp].[moe](A)[sp].[moe](G)[sp].[moe](A)[sp].d(T)[sp].d(G)[sp].d(A)[sp].d(G)[sp].d(G)[sp].d(C)[sp].d(A)[sp].d(T)[sp].d(A)[sp].[moe](G)[sp].[moe](C)[sp].[moe](A)[sp].[moe](G)}$$$$V2.0”: 44% and 37%; “RNA1{[moe](A)[sp].[moe](G)[sp].[moe](A)[sp].[moe](G)[sp].[moe](G)[sp].d(T)[sp].d(G)[sp].d(A)[sp].d(A)[sp].d(G)[sp].d(C)[sp].d(G)[sp].d(A)[sp].d(A)[sp].[moe](G)[sp].[moe](T)}$$$$V2.0”: 55% and 52%.

As for “RNA1{[moe](A)[sp].[moe](T)[sp].[moe](G)[sp].[moe](A)[sp].[moe](G)[sp].d(G)[sp].d(C)[sp].d(A)[sp].d(T)[sp].d(A)[sp].d(G)[sp].d(C)[sp].d(A)[sp].d(G)[sp].[moe](C)[sp].[moe](A)}$$$$V2.0”, the target mRNA inhibition is 52% and 56%. Take “RNA1{[moe](C)[sp].[moe](C)[sp].[moe](A)[sp].[moe](C)[sp].d(T)[sp].d(G)[sp].d(A)[sp].d(A)[sp].d(C)[sp].d(A)[sp].d(A)[sp].d(A)[sp].d(T)[sp].[moe](G)[sp].[moe](G)[sp].[moe](C)}$$$$V2.0”: the target mRNA inhibition was 57% and 68%. Next, “RNA1{[moe](G)[sp].[moe](A)[sp].[moe](G)[sp].[moe](G)[sp].[moe](C)[sp].[moe](A)[sp].d(T)[sp].d(A)[sp].d(G)[sp].d(C)[sp].d(A)[sp].d(G)[sp].d(C)[sp].d(A)[sp].d(G)[sp].[moe](G)[sp].[moe](A)}$$$$V2.0”: 61% and 45%. The figure for “RNA1{[moe](A)[sp].[moe](G)[sp].[moe](G)[sp].d(T)[sp].d(G)[sp].d(A)[sp].d(A)[sp].d(G)[sp].d(C)[sp].d(G)[sp].d(A)[sp].d(A)[sp].[moe](G)[sp].[moe](T)[sp].[moe](G)[sp].[moe](C)[sp].[moe](A)}$$$$V2.0” is 77% and 71%; for “RNA1{[moe](C)[sp].[moe](G)[sp].[moe](G)[sp].[moe](G)[sp].d(C)[sp].d(A)[sp].d(A)[sp].d(C)[sp].d(A)[sp].d(T)[sp].d(A)[sp].d(C)[sp].d(C)[sp].[moe](T)[sp].[moe](T)[sp].[moe](G)}$$$$V2.0” it is 48% and 65%. For “RNA1{[moe](G)[sp].[moe](A)[sp].[moe](T)[sp].[moe](G)[sp].d(A)[sp].d(G)[sp].d(G)[sp].d(C)[sp].d(A)[sp].d(T)[sp].d(A)[sp].d(G)[sp].d(C)[sp].[moe](A)[sp].[moe](G)[sp].[moe](C)}$$$$V2.0”, the target mRNA inhibition was 34% and 35%. Turning to “RNA1{[moe](A)[sp].[moe](A)[sp].[moe](T)[sp].[moe](T)[sp].[moe](T)[sp].d(A)[sp].d(T)[sp].d(G)[sp].d(C)[sp].d(C)[sp].d(T)[sp].d(A)[sp].d(C)[sp].d(A)[sp].[moe](G)[sp].[moe](C)[sp].[moe](C)}$$$$V2.0”, the target mRNA inhibition is 63% and 50%.

Consider “RNA1{[moe](G)[sp].[moe](C)[sp].d(A)[sp].d(C)[sp].d(T)[sp].d(A)[sp].d(G)[sp].d(T)[sp].d(A)[sp].d(A)[sp].d(A)[sp].[moe](C)[sp].[moe](T)[sp].[moe](G)[sp].[moe](A)[sp].[moe](G)[sp].[moe](C)}$$$$V2.0”, for which the target mRNA inhibition is 75% and 78%. Next, “RNA1{[moe](G)[sp].[moe](A)[sp].[moe](A)[sp].d(G)[sp].d(C)[sp].d(G)[sp].d(A)[sp].d(A)[sp].d(G)[sp].d(T)[sp].d(G)[sp].d(C)[sp].[moe](A)[sp].[moe](C)[sp].[moe](A)[sp].[moe](C)[sp].[moe](G)}$$$$V2.0”: 76% and 60%; “RNA1{[moe](C)[sp].[moe](G)[sp].[moe](A)[sp].d(A)[sp].d(C)[sp].d(C)[sp].d(A)[sp].d(C)[sp].d(T)[sp].d(G)[sp].d(A)[sp].d(A)[sp].[moe](C)[sp].[moe](A)[sp].[moe](A)[sp].[moe](A)}$$$$V2.0”: 48% and 28%; “RNA1{[moe](G)[sp].[moe](A)[sp].[moe](G)[sp].[moe](G)[sp].d(T)[sp].d(G)[sp].d(A)[sp].d(A)[sp].d(G)[sp].d(C)[sp].d(G)[sp].d(A)[sp].d(A)[sp].[moe](G)[sp].[moe](T)[sp].[moe](G)}$$$$V2.0”: 14% and 26%. Next, “RNA1{[moe](T)[sp].[moe](G)[sp].d(C)[sp].d(A)[sp].d(G)[sp].d(A)[sp].d(G)[sp].d(G)[sp].d(T)[sp].d(G)[sp].d(A)[sp].[moe](A)[sp].[moe](G)[sp].[moe](C)[sp].[moe](G)[sp].[moe](A)[sp].[moe](A)}$$$$V2.0”: 39% and 45%; “RNA1{[moe](C)[sp].[moe](G)[sp].d(A)[sp].d(A)[sp].d(C)[sp].d(C)[sp].d(A)[sp].d(C)[sp].d(T)[sp].d(G)[sp].d(A)[sp].[moe](A)[sp].[moe](C)[sp].[moe](A)[sp].[moe](A)[sp].[moe](A)[sp].[moe](T)}$$$$V2.0”: 55% and 36%; “RNA1{[moe](A)[sp].[moe](G)[sp].[moe](G)[sp].[moe](T)[sp].d(G)[sp].d(A)[sp].d(A)[sp].d(G)[sp].d(C)[sp].d(G)[sp].d(A)[sp].d(A)[sp].d(G)[sp].[moe](T)[sp].[moe](G)[sp].[moe](C)[sp].[moe](A)}$$$$V2.0”: 58% and 56%. Next, “RNA1{[moe](G)[sp].[moe](T)[sp].d(G)[sp].d(C)[sp].d(A)[sp].d(G)[sp].d(A)[sp].d(G)[sp].d(G)[sp].d(T)[sp].d(G)[sp].[moe](A)[sp].[moe](A)[sp].[moe](G)[sp].[moe](C)[sp].[moe](G)[sp].[moe](A)}$$$$V2.0”: 70% and 66%; “RNA1{[moe](G)[sp].[moe](A)[sp].[moe](A)[sp].[moe](G)[sp].d(T)[sp].d(C)[sp].d(C)[sp].d(A)[sp].d(C)[sp].d(C)[sp].d(A)[sp].d(C)[sp].d(G)[sp].[moe](A)[sp].[moe](G)[sp].[moe](T)[sp].[moe](C)}$$$$V2.0”: 48% and 36%; “RNA1{[moe](A)[sp].[cEt](C)[sp].d(T)[sp].d(G)[sp].d(G)[sp].d(A)[sp].d(G)[sp].d(C)[sp].d(C)[sp].d(A)[sp].d(C)[sp].d(C)[sp].[cEt](A)[sp].[moe](G)[sp].[cEt](C)[sp].[moe](A)}$$$$V2.0”: 67% and 55%. “RNA1{[moe](T)[sp].[cEt](G)[sp].d(A)[sp].d(A)[sp].d(G)[sp].d(C)[sp].d(G)[sp].d(A)[sp].d(A)[sp].d(G)[sp].d(T)[sp].d(G)[sp].[cEt](C)[sp].[moe](A)[sp].[cEt](C)[sp].[moe](A)}$$$$V2.0”: the target mRNA inhibition is 76% and 71%.
